Source: PubChem BioAssay (NCI)
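Assay format: 96-well plates, 48-hour exposure. TGI denotes the concentration required for complete inhibition of growth.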

Experiments:
Test in all cases: NCI tumour cell line growth inhibition, 48 h
[1] = test system: A498 renal
[2] = test system: IGROV1 ovarian
[3] = test system: UACC-257 melanoma
[4] = test system: HCT-15 colon
[5] = test system: SNB-78 CNS
[6] = test system: OVCAR-3 ovarian
[7] = test system: COLO 205 colon
[8] = test system: A549 NSCLC
[9] = test system: M14 melanoma
[10] = test system: 786-0 renal
[11] = test system: DLD-1 colon
[12] = test system: SR leukemia
[13] = test system: DMS 273 small cell lung
[14] = test system: LXFL 529 NSCLC
[15] = test system: SF-539 CNS
[16] = test system: OVCAR-8 ovarian
[17] = test system: SK-MEL-2 melanoma
[18] = test system: OVCAR-5 ovarian
[19] = test system: MOLT-4 leukemia
[20] = test system: U251 CNS
[21] = test system: MALME-3M melanoma
[22] = test system: KM20L2 colon
[23] = test system: NCI-H23 lung
[24] = test system: M19-MEL melanoma
[25] = test system: HOP-18 NSCLC
[26] = test system: TK-10 renal
[27] = test system: RPMI-8226 leukemia
[28] = test system: EKVX NSCLC
[29] = test system: HT29 colon
[30] = test system: LOX IMVI melanoma
[31] = test system: NCI-H226 lung
[32] = test system: K-562 leukemia
[33] = test system: HOP-92 NSCLC
[34] = test system: HCC-2998 colon
[35] = test system: HCT-116 colon
[36] = test system: CCRF-CEM leukemia
[37] = test system: HL-60(TB) leukemia
[38] = test system: OVCAR-4 ovarian
[39] = test system: SF-295 CNS
[40] = test system: NCI-H522 lung
[41] = test system: HOP-62 NSCLC
[42] = test system: SNB-19 CNS
[43] = test system: UO-31 renal
[44] = test system: XF 498 CNS
[45] = test system: SF-268 CNS
[46] = test system: NCI-H460 lung
[47] = test system: DMS 114 small cell lung
[48] = test system: RXF 393 renal
[49] = test system: ACHN renal
[50] = test system: SW-620 colon
[51] = test system: SNB-75 CNS
[52] = test system: UACC-62 melanoma
[53] = test system: SN12C renal
[54] = test system: SK-MEL-5 melanoma
[55] = test system: SK-MEL-28 melanoma
[56] = test system: SK-OV-3 ovarian
[57] = test system: CAKI-1 renal
[58] = test system: KM12 colon

Measured: TGI

Cc1ccc(NC(=O)C2C3C=CC(O3)C2C(=O)O)cc1 (centres undefined)
80.1 µM: [48]
39.8 µM: [29]
47.4 µM: [30]
26.8 µM: [50]
54.7 µM: [27]
not listed: [57] | [58]
> 100 µM: all other assays above

C=C(C)CC(C(=O)O)c1ccc(C)cc1 (centres undefined)
not listed: [9] | [14] | [19] | [31] | [34] | [36] | [37] | [40] | [43] | [56]
> 100 µM: all other assays above
